This is an account of results in US8785457B2 (Cellzome Limited, priority 2009, dated 2014).

One assay addresses T1, mTOR (Homo sapiens, UniProt P42345).
T1 construct: endogenous in cells; host or cells: Jurkat, clone E6-1 (ATCC TIB-152) cell lysate
Put plainly: mTOR kinobeads assay (competitive binding in Jurkat cell lysate, immunodetection). To be noted: Further Kinobeads Data; read-out: mTor. In outline:
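IC50 derived from dose-response curves of mTOR captured on immobilized phenylmorpholin-chromen beads, detected by antibody dot blot with infrared fluorescence.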

The next assay concerns the target T2, PI3Kalpha (PI3Ka) (Homo sapiens, UniProt P42336).
T2 construct: endogenous in cells; host or cells: cell lysate
Put plainly: kinobeads assay, PI3Kalpha. It counts as binding. To be noted: Further Kinobeads Data. In outline: (§1)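 In this bead competition format, compound and immobilized phenylmorpholin-chromen ligand compete for kinases in cell lysate. Eluted captured kinases were measured by multiplexed immunodetection, and IC50 was calculated.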

The target of the next assay is T3, PI3 Kgamma (PI3 Kg) (Homo sapiens, UniProt P48736).
T3 construct: endogenous in cells; host or cells: cell lysate
The assay can be described thus: kinobeads assay, PI3Kgamma. To be noted: Further Kinobeads Data; read-out: PI3Kg. It counts as binding. The method in brief:
as §1

Assay [1] concerns S6RP serine-240/244 phosphorylation. Put plainly: In vitro Phospho-S6 cellular assay (pS6RP S240/244) in HEK293T/17 cells. It counts as cell-based. As to conditions: Homo sapiens, 2 hours, read-out: pS6 IC50. The method in brief: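 Compounds were tested at eight concentrations on adhered HEK293T/17 cells for 2 h at 37 °C (2% FCS, 0.1% DMSO), at 80,000 cells/well for pAkt S473 and 40,000 for pS6RP S240/244. Lysates were captured on phospho-specific antibody MSD plates with Sulfo-Tag detection. Values came from nonlinear variable-slope regression.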

T2 sequence (P42336 whole entry): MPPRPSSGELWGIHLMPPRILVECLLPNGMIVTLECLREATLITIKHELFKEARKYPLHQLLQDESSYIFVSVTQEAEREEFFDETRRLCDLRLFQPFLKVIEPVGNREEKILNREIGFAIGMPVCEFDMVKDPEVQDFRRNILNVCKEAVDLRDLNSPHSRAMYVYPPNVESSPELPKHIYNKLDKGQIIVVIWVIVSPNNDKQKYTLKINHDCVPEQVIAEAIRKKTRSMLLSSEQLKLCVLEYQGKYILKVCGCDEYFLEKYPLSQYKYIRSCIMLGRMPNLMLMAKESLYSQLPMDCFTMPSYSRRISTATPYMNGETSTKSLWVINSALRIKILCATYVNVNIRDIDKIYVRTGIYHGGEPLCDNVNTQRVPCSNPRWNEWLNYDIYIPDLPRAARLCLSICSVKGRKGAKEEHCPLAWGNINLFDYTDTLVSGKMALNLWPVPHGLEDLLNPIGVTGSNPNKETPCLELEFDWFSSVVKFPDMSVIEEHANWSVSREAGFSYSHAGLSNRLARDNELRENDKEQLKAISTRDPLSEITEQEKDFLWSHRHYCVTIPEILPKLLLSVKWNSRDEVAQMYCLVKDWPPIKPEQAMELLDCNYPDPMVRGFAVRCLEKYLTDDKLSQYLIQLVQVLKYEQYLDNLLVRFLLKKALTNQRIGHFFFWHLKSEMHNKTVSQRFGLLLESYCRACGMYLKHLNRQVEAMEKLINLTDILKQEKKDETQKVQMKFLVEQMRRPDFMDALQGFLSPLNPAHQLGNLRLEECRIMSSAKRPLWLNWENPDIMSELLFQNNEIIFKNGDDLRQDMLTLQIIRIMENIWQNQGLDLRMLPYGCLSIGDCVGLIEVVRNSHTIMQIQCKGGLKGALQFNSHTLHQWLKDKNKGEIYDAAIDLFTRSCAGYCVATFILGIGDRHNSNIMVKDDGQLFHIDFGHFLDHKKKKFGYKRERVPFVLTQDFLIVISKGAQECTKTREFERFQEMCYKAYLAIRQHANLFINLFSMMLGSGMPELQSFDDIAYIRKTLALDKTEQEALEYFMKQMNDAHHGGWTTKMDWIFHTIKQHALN
T2 sequence (P27986 whole entry partner): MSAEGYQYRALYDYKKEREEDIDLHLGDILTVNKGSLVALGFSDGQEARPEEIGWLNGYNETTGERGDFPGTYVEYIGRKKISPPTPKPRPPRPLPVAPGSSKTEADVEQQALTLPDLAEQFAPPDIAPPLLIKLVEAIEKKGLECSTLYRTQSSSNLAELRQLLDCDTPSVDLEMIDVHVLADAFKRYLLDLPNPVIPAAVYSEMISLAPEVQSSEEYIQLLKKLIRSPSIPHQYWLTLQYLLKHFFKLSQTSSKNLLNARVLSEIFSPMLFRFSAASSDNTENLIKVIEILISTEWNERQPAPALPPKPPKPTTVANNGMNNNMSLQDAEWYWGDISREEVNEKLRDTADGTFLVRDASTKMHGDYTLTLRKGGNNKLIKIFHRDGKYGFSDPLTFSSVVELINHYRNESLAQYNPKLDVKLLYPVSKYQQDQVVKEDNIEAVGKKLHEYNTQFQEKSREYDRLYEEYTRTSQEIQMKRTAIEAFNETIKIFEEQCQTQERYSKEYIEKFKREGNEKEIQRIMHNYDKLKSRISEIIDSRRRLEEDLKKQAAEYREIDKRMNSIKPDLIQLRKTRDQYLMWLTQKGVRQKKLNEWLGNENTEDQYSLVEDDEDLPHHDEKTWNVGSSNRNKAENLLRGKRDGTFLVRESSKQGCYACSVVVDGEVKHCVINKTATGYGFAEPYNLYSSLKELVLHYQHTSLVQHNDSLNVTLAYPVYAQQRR
T3 sequence (P48736 whole entry): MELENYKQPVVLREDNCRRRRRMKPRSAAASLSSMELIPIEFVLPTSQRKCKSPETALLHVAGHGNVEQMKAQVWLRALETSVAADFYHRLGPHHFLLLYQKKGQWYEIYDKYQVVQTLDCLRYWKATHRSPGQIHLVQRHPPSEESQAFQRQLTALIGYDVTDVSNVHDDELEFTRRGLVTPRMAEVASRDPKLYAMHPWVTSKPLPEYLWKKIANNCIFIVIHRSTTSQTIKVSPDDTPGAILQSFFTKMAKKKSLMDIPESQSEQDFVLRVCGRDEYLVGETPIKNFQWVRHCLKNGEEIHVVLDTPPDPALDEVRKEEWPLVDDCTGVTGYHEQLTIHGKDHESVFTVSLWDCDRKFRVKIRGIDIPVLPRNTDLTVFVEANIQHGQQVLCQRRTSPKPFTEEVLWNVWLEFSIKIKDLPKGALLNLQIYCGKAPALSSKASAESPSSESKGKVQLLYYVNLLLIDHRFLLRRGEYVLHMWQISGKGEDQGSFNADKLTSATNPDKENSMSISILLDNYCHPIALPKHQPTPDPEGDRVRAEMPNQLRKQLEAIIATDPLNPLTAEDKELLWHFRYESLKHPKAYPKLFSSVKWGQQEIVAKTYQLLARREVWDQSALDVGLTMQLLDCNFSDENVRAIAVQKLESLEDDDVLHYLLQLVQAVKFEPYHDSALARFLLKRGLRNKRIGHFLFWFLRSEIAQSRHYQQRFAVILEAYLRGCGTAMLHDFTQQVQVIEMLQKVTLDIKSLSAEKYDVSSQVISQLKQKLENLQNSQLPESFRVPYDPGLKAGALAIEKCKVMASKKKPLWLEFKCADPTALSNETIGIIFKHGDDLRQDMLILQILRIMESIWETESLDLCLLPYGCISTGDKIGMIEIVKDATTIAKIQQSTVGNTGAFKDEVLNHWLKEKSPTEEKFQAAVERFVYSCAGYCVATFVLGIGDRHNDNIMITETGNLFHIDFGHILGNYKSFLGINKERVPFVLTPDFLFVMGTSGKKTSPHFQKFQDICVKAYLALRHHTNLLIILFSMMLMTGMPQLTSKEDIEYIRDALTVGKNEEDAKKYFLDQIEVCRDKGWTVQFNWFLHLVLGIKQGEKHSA

`CC(C)N1Cc2nc(-c3ccc(NC(=O)NCCO)cc3F)nc(N3CCOC[C@@H]3C)c2C1` [Example 187, (S)-1-(3-fluoro-4-(6-isopropyl-4-(3-methylmorpholino)-6,7-dihydro-5H-pyrrolo[3,4-d]pyrimidin-2-yl)phenyl)-3-(2-hydroxyethyl)urea]: the values for the IC50 (on mTOR; at PI3 Kgamma (PI3 Kg); in assay [1]) were less than 100 nM, greater than 10000 nM and 563 nM, respectively. Moreover, at PI3Kalpha (PI3Ka), the PI3Ka entry is recorded as “D (D >10 μM)”.

Take `C[C@@H]1COCCN1c1nc(-c2ccc(NC(=O)NC3CC3)cc2F)nc2c1CN(C(=O)C1CC1)C2` [Example 188, (R)-1-(4-(6-(cyclopropanecarbonyl)-4-(3-methylmorpholino)-6,7-dihydro-5H-pyrrolo[3,4-d]pyrimidin-2-yl)-3-fluorophenyl)-3-cyclopropylurea]: the IC50 at mTOR was less than 100 nM; at PI3Kalpha (PI3Ka) (read-out: PI3Ka), 1000 to 10000 nM; on PI3 Kgamma (PI3 Kg), greater than 10000 nM; in assay [1] it was 218 nM.

Regarding `CC(C)NC(=O)N1CCc2c(nc(-c3ccc(NC(=O)NC4CC4)cc3F)nc2N2CCOC[C@@H]2C)C1` [Example 189, (S)-2-(4-(3-cyclopropylureido)-2-fluorophenyl)-N-isopropyl-4-(3-methylmorpholino)-5,6-dihydropyrido[3,4-d]pyrimidine-7(8H)-carboxamide], the IC50 at mTOR is less than 100 nM; at PI3 Kgamma (PI3 Kg) it was greater than 10000 nM; in assay [1], 133 nM. Moreover, the PI3Ka result on PI3Kalpha (PI3Ka) was “D (D >10 μM)”.

As for `C[C@@H]1COCCN1c1nc(-c2ccc(NC(=O)NC3CC3)cc2F)nc2c1CN(C=O)C2` [Example 190, (R)-1-cyclopropyl-3-(3-fluoro-4-(6-formyl-4-(3-methylmorpholino)-6,7-dihydro-5H-pyrrolo[3,4-d]pyrimidin-2-yl)phenyl)urea], the IC50 is less than 100 nM at mTOR, greater than 10000 nM at PI3 Kgamma (PI3 Kg) and 351 nM in assay [1]. Besides, the PI3Ka entry at PI3Kalpha (PI3Ka) is “D (D >10 μM)”.

For the molecule `C[C@@H]1COCCN1c1nc(-c2ccc(NC(=O)NC3CC3)cc2F)nc2c1CN(S(C)(=O)=O)C2` [Example 191, (R)-1-cyclopropyl-3-(3-fluoro-4-(4-(3-methylmorpholino)-6-(methylsulfonyl)-6,7-dihydro-5H-pyrrolo[3,4-d]pyrimidin-2-yl)phenyl)urea], the IC50 on mTOR is 100 to 1000 nM; at PI3 Kgamma (PI3 Kg), greater than 10000 nM; in assay [1] it was 180 nM. The PI3Ka entry on PI3Kalpha (PI3Ka) was “D (D >10 μM)”.
